What follows are compounds tested against T1, human Nav1.1 (Homo sapiens, UniProt P35498) (assay: Amplification of Nav1.1-derived voltage-gated sodium current (Nav1.1 current), automated patch clamp (Test 1)). Conditions: Concentration for evaluation 1 μM; HEK293 cell line stably expressing human Nav1.1.
T1 construct: host or cells: HEK293
Type: cell-based
Procedure: Test 1: Evaluation of the Amplification of Nav1.1-Derived Voltage-Gated Sodium Current (Nav1.1 Current) by Using a Cell Line Stably Expressing Human Nav1.1
(1) Preparation of Test Compound Solution
Test compounds were prepared by dissolving in DMSO at 200 times of the concentration at evaluation, and diluting the obtained solution to twice the concentration of evaluation with an extracellular fluid (135 mmol/L NaCl, 4 mmol/L KCl, 1 mmol/L MgCl2, 5 mmol/L CaCl2, 5 mmol/L Glucose, 10 mmol/L HEPES).
(2) Induction and Measurement of Nav1.1 Current
A HEK293 cell line stably expressing human Nav1.1 (cat #CYL3009, Eurofins DiscoverX Products, LLC, Human Embryonic Kidney 293) was purchased, and used in the present test. Nav1.1 current was induced by stimulating Ramp wave voltage. Detection of current which accompanied with the stimulation of voltage was carried out by a patch-clamp voltage-clamp method using HTS automated patch clamp system (SynchroPatch 768PE, Nanion Technologies GmbH, Germany). Only cells with more than 500 pA of voltage-gated sodium channel current were used for the evaluation of the activity of compounds on Nav1.1 current because there was the possibility that currents derived from endogenous voltage-gated sodium channels accounted for large proportion in cells with less than 500 pA of voltage-gated sodium channel current which was induced by stimulating Ramp wave voltage.
(3) Pharmacological Effect on Nav1.1 Current
The effect of test compounds on the amplification of Nav1.1-derived voltage-gated sodium current was evaluated by using a cell line stably expressing human Nav1.1 and HTS automated patch clamp system. In other words, test compounds were added in an extracellular fluid containing 1% DMSO, and evaluated as a change of the peak value of Nav1.1 current and the area under the curve (AUC).
(4) Method for Pharmacological Evaluation
The Nav1.1 current amplification rates of test compounds were calculated by the following formula:
Nav1.1 current amplification rate (%)=100×[the peak value of Nav1.1 current or the area under the curve after the addition of test compounds]/[the peak value of Nav1.1 current or the area under the curve before the addition of test compounds]−100

Structure (SMILES) | Nav1.1 current amplification rate (%)
CC1CC=C(c2ncc3cnn(CC(=O)Nc4ccn5ncnc5c4)c3n2)CC1 (racemic) [Example 764] | 164

Same assay, conditions: Concentration for evaluation 10 μM; HEK293 cell line stably expressing human Nav1.1

Structure (SMILES) | Nav1.1 current amplification rate (%)
CC1CCC(c2ccc(=O)n(CC(=O)N3CCc4c(N5CCOCC5)cccc43)n2)CC1 (mixture of isomers) [Example 472] | 387
CC1CC=C(c2ccc(=O)n(CC(=O)Nc3ccn4cc(C(F)(F)F)nc4c3)n2)CC1 (racemic) [Example 421] | 199
Cc1nc2cc(NC(=O)Cn3nc(C4=CCC(C)CC4)ccc3=O)ccc2o1 (racemic) [Example 422] | 287
Cc1noc2ccc(NC(=O)Cn3nc(C4=CCC(C)CC4)ccc3=O)cc12 (racemic) [Example 423] | 11
CC1CC=C(c2ccc(=O)n(CC(=O)N3CC4(C3)CN(c3cccnc3)C4)n2)CC1 (racemic) [Example 424] | 40
O=C(Cn1nc(C2=CCC(C(F)(F)F)CC2)ccc1=O)Nc1ccc2ocnc2c1 (racemic) [Example 446] | 333
COc1cc(C2=CCC(C(F)(F)F)CC2)nn(CC(=O)Nc2ccc3ocnc3c2)c1=O (racemic) [Example 447] | 148
COc1cc(C2=CCC(C)CC2)nn(CC(=O)Nc2ccc3ocnc3c2)c1=O (racemic) [Example 449] | 250
COc1cc(=O)n(CC(=O)Nc2ccc3ocnc3c2)nc1C1=CCC(C(F)(F)F)CC1 (racemic) [Example 450] | 187
CCCCN(C)c1ccc(=O)n(CC(=O)Nc2ccc(C#N)cc2)n1 [Example 30] | 77
Cc1c(N2CCC(C)CC2)nn(CC(=O)Nc2ccc(C#N)cc2)c(=O)c1C [Example 35] | 301
CC1CCN(c2nn(CC(=O)Nc3ccc(C#N)cc3)c(=O)c3c2CCCC3)CC1 [Example 36] | 312
N#Cc1ccc(NC(=O)Cn2nc(C3=CCCCC3)ccc2=O)cc1 [Example 39] | 125
CC1(C)CC=C(c2ccc(=O)n(CC(=O)Nc3ccc(C#N)cc3)n2)CC1 [Example 42] | 216
CC1(C)CCC=C(c2ccc(=O)n(CC(=O)Nc3ccc(C#N)cc3)n2)C1 [Example 45] | 202
CC1(C)CCCC(c2ccc(=O)n(CC(=O)Nc3ccc(C#N)cc3)n2)C1 (centres unmarked) [Example 46] | 85
N#Cc1ccc(NC(=O)Cn2nc(C3CCC(F)(F)CC3)ccc2=O)cc1 [Example 47] | 11
CC1C=C(c2ccc(=O)n(CC(=O)Nc3ccc(C#N)cc3)n2)CC(C)O1 (centres unmarked) [Example 49] | 2
CC1CCN(c2ccc(=O)n(CC(=O)Nc3ccc(C#N)nc3)n2)CC1 [Example 51] | 196
CC1CCN(c2ccc(=O)n(CC(=O)Nc3ccnc(C(F)(F)F)c3)n2)CC1 [Example 52] | 248
CC1CCN(c2ccc(=O)n(CC(=O)Nc3ccnc(C#N)c3)n2)CC1 [Example 53] | 161
Cc1cc(NC(=O)Cn2nc(N3CCC(C)CC3)ccc2=O)cc(C)n1 [Example 54] | 20
CC1CCN(c2ccc(=O)n(CC(=O)Nc3cncnc3)n2)CC1 [Example 56] | 10
CC1CCN(c2ccc(=O)n(CC(=O)Nc3ccnc(N(C)C)c3)n2)CC1 [Example 57] | 48
CC1CCN(c2ccc(=O)n(CC(=O)Nc3ccc(F)nc3)n2)CC1 [Example 58] | 26
CC1CCN(c2ccc(=O)n(CC(=O)Nc3ccc(C(F)(F)F)nc3)n2)CC1 [Example 59] | 180
CC1CCN(c2ccc(=O)n(CC(=O)Nc3cncc(C(F)(F)F)c3)n2)CC1 [Example 61] | 77

Other lines, results leading:

Nav1.1 current amplification rate (%) | Structure (SMILES)
40 | N#Cc1ccc(NC(=O)Cn2nc(N3CCCCC3)ccc2=O)cc1 [Example 3]
3 | N#Cc1ccc(NC(=O)Cn2nc(N3CCCC3)ccc2=O)cc1 [Example 4]
6 | N#Cc1ccc(NC(=O)Cn2nc(N3CCC(F)(F)CC3)ccc2=O)cc1 [Example 5]
35 | CC(C)(C)C1CCN(c2ccc(=O)n(CC(=O)Nc3ccc(C#N)cc3)n2)CC1 [Example 6]
3 | N#Cc1ccc(NC(=O)Cn2nc(N3CCCC(O)C3)ccc2=O)cc1 (centres unmarked) [Example 7]
4 | N#Cc1ccc(NC(=O)Cn2nc(N3CCCC(C(N)=O)C3)ccc2=O)cc1 (centres unmarked) [Example 8]
11 | COC1CCN(c2ccc(=O)n(CC(=O)Nc3ccc(C#N)cc3)n2)CC1 [Example 9]
124 | N#Cc1ccc(NC(=O)Cn2nc(N3CCC(C(F)(F)F)CC3)ccc2=O)cc1 [Example 10]
205 | N#Cc1ccc(NC(=O)Cn2nc(N3CCCCCC3)ccc2=O)cc1 [Example 11]
241 | N#Cc1ccc(NC(=O)Cn2nc(N3CCCCCCC3)ccc2=O)cc1 [Example 12]
76 | CC1CCCN(c2ccc(=O)n(CC(=O)Nc3ccc(C#N)cc3)n2)C1 (centres unmarked) [Example 13]
9 | CC1CC(C)CN(c2ccc(=O)n(CC(=O)Nc3ccc(C#N)cc3)n2)C1 (centres unmarked) [Example 14]
10 | CC1CC(C)CN(c2ccc(=O)n(CC(=O)Nc3ccc(C#N)cc3)n2)C1 (centres unmarked) [Example 15]
59 | N#Cc1ccc(NC(=O)Cn2nc(N3CCCC(C(F)(F)F)C3)ccc2=O)cc1 (centres unmarked) [Example 16]
212 | N#Cc1ccc(NC(=O)Cn2nc(N3CCC4(CC3)CC4)ccc2=O)cc1 [Example 17]
11 | N#Cc1ccc(NC(=O)Cn2nc(N3CC4CC4C3)ccc2=O)cc1 (centres unmarked) [Example 18]
98 | CC1CCN(c2ccc(=O)n(CC(=O)Nc3ccc(C#N)cc3)n2)C1 (centres unmarked) [Example 19]
152 | N#Cc1ccc(NC(=O)Cn2nc(N3CCCC4(CC4)C3)ccc2=O)cc1 [Example 20]
130 | CC1(C)CCN(c2ccc(=O)n(CC(=O)Nc3ccc(C#N)cc3)n2)C1 [Example 21]

Nav1.1 current amplification rate (%) | Structure (SMILES)
110 | CC1(C)CCCN(c2ccc(=O)n(CC(=O)Nc3ccc(C#N)cc3)n2)C1 [Example 22]
28 | CC12CCC(CN(c3ccc(=O)n(CC(=O)Nc4ccc(C#N)cc4)n3)C1)C2(C)C (centres unmarked) [Example 23]
286 | N#Cc1ccc(NC(=O)Cn2nc(N3CCC4(CCCC4)C3)ccc2=O)cc1 [Example 24]
163 | N#Cc1ccc(NC(=O)Cn2nc(N3CCC4(CC4)C3)ccc2=O)cc1 [Example 25]
364 | N#Cc1ccc(NC(=O)Cn2nc(N3CCC4(CCC4)CC3)ccc2=O)cc1 [Example 26]
5 | N#Cc1ccc(NC(=O)Cn2nc(N3CCC4(CC3)COC4)ccc2=O)cc1 [Example 27]
158 | CCC1(C)CCN(c2ccc(=O)n(CC(=O)Nc3ccc(C#N)cc3)n2)CC1 [Example 28]
20 | N#Cc1ccc(NC(=O)Cn2nc(N3CCC4(CCCO4)CC3)ccc2=O)cc1 [Example 29]
220 | N#Cc1ccc(NC(=O)Cn2nc(N3CCC4(CCCCC4)C3)ccc2=O)cc1 [Example 31]
60 | N#Cc1ccc(NC(=O)Cn2nc(N3CCC4(CC3)CC(F)(F)C4)ccc2=O)cc1 [Example 32]
220 | N#Cc1ccc(NC(=O)Cn2nc(N3CCCC4(CCC4)C3)ccc2=O)cc1 [Example 33]
311 | N#Cc1ccc(NC(=O)Cn2nc(N3CCC4(CCC4)C3)ccc2=O)cc1 [Example 34]
20 | N#Cc1ccc(NC(=O)Cn2nc(C3CCCCC3)ccc2=O)cc1 [Example 40]
324 | CC1CC=C(c2ccc(=O)n(CC(=O)Nc3ccc(C#N)cc3)n2)CC1 (centres unmarked) [Example 41]
174 | C[C@H]1CC[C@H](c2ccc(=O)n(CC(=O)Nc3ccc(C#N)cc3)n2)CC1 [Example 43]
59 | C[C@H]1CC[C@@H](c2ccc(=O)n(CC(=O)Nc3ccc(C#N)cc3)n2)CC1 [Example 44]
111 | CC1CCN(c2ccc(=O)n(CC(=O)Nc3cccc(C#N)c3)n2)CC1 [Example 55]
57 | CC1CCN(c2ccc(=O)n(CC(=O)Nc3cncc(C#N)c3)n2)CC1 [Example 60]

From patent US20230109839A1, “THERAPEUTIC AGENT FOR TAUOPATHIES” (SUMITOMO PHARMA CO., LTD., priority 2020, published 2023)
